In patent US20220304945A1, “METHODS OF TREATING METABOLIC SYNDROME RELATED CONDITIONS USING RETINOIC ACID RECEPTOR AGONISTS” (Cornell University, priority 2014, published 2022):
Entries after “also recorded” stand apart in the source; their conditions may differ.

Tests used:
Assay type in all cases: in vivo, mouse
[1] = Serum triglyceride level measurement (bichromatic assay), Example 8; settings: HF diet mice (Example 8); vs control diet
Excerpt: (§1) Mice, diet, and drug treatment. WT male C57/BL6 male mice were maintained on either a standard laboratory chow-fed diet (CFD) with 13% kcal fat, (diet #5053, Lab Diet, Inc, St. Louis, Mo.) or a high fat, western style diet (HFD) with 60% kcals from fat, (diet #58126, Lab Diet, Inc., St. Louis, Mo.) for 4 months. One month after the start of the high fat diet treatment, the high fat diet group was further split into 2 groups for 3 months: i) high fat diet and the drinking water containing 1% DMSO; ii) high fat diet and the drinking water containing 1.5 mg/100 ml AC261066, a specific RARβ agonist. Then mice were sacrificed by cervical dislocation. Blood and various tissue samples were harvested.
Serum triglyceride level measurement. The analysis of serum triglyceride levels was carried out using a bichromatic assay at the Laboratory of Comparative Pathology of the Memorial Sloan-Kettering Cancer Center. Chow-fed diet (CFD) n=2; high fat diet (HFD) n=3; high fat diet+AC261066 (HFDAC) n=5.

HF-fed C57/BL6 mice = experiment: Metabolic studies (body weight, GTT) in HF-fed wild type mice, 4 months; settings: obese HF-fed mice, 3.0 mg/100 ml drinking water
Procedure: Mice, diet, and drug treatment. Dietary Obesity Studies: Wild type (wt) male C57/BL6 male mice were maintained on either a standard laboratory chow-fed diet (Con) with 13% kcal fat, (diet #5053, Lab Diet, Inc, St. Louis, Mo.) or a high fat, western style diet (HFD) with 45% kcals from fat, (diet #58126, Lab Diet, Inc., St. Louis, Mo.) for 4 months. […]
Metabolic Measurements-Glucose tolerance was performed using an intraperitoneal glucose tolerance test (GTT) as previously described (Trasino et al., Vitamin A Deficiency Causes Hyperglycemia and Loss of Pancreatic β-Cell Mass, J Biol Chem. 2014 Dec. 1. pii: jbc.M114.616763). […] Tail vein blood glucose was measured at 20, 40, 60 and 120 minutes after injection using a FreeStyle Lite Blood Glucose Monitoring System (Abbott Diabetes Care, Inc. Alameda, Calif.). To determine insulin secretion responses to glucose, serum fractions were isolated between 0-60 minutes post glucose injections and insulin concentrations were measured using an Ultrasensitive Insulin ELISA Kit (Alpco, Inc. Salem, N.H.). Random blood glucose measurements were taken from tail veins of 4 mice per group at 2-3 random time points daily Means are expressed as±standard error of the mean (S.E.M) and P-values were calculated using one-way analysis of variance followed by Bonferroni post-hoc analysis.

[2] = tested on: pancreatic islets (β-cells); experiment: Pancreatic islet size (insulin immunofluorescence) and pancreatic insulin content (ELISA); settings: Ob/Ob and Db/Db models
Procedure: Immunofluorescence and Immunostaining Microscopy-Paraffin embedded pancreatic tissue sections were incubated with antibodies against: insulin (mouse monoclonal 1:300, #1061, Beta Cell Biology Consortium). We utilized Alexa-fluor 488 conjugated anti-mouse secondary antibody (1:500) (Invitrogen, Carlsbad, Calif.) for immunofluorescence labeling of insulin followed by visualization using a Nikon TE2000 inverted fluorescence microscope (Nikon, Inc).
Pancreatic Insulin Measurements-Pancreatic insulin levels were measured in lysates from pancreatic tissues using an ultrasensitive Insulin ELISA Kit (Alpco, Inc. Salem, N.H.) as per the manufacturers' instructions. Insulin concentrations were normalized to pancreatic protein concentrations determined using the DC protein assay (Bio-Rad, Inc. Hercules, Calif.) according to the manufacturers' protocol. Endocrine hormones levels are reported as mean±standard error of the mean (S.E.M) and P-values calculated using one-way analysis of variance followed by Bonferroni multiple comparison test post-hoc analysis.
Measurement of Pancreatic Endocrine Cell Mass.—Pancreatic endocrine cell mass was determined using a direct point counting method as previously described. […]

RARβ2 mRNA = experiment: Semi-quantitative PCR of pancreas, HF-fed mice; settings: HF diet mice; vs HF-vehicle
Excerpt: as §1
Semi-Quantitate PCR. Total RNA was extracted from mouse tissues using TRIzol reagent (Life technologies) and (1 μg) was used to synthesize cDNA. cDNA synthesis was performed at 42° C. for 1 h in a final volume of 20 μl using qScript (Quanta, MD). Semi-quantitative PCR were performed Taq DNA polymerase (Invitrogen, CA). Three step PCR was run as follows: 94° C. for 30 s, 58-64° C. for 45 s for primer annealing and 72° C. for 1 min for primer extension. The number of cycles for each primer pair for amplification in the linear range was determined experimentally. PCR products were resolved on 2% agarose gels and visualized by staining with ehtidium bromide. […]

## CCCCOCCOc1nc(-c2ccc(C(=O)O)c(F)c2)sc1C [AC261066]
[1]
  serum triglyceride levels: does not increase; also recorded: does not affect
HF-fed C57/BL6 mice
  body weights: significant reductions
[2]
  pancreatic insulin content: diminishes
[2]; HF-fed mice
  number of large pancreatic islets (enlarged β-cells): diminishes
RARβ2 mRNA
  pancreatic RARβ2 mRNA level: increased
